According to PubChem BioAssay AID256 (DTP/NCI, 2004):
Several values for one entry are separate records, joined by “and”; a condition that tells them apart may be missing. Equal entries are not always repeated. Toxic doses and inconclusive results are not listed. The calls were made as follows: active = survival T/C of 150% or more; inactive = T/C below 125% in these data.

System: CD2F1 mice, L1210 leukemia ip, survival T/C
Experiment: NCI In Vivo Anticancer Drug Screen. Data for tumor model L1210 Leukemia (intraperitoneal) in CD2F1 (CDF1) mice
Settings: higher = longer survival
Method in brief: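 Tumor-bearing mice (transplanted tumor) were split into treated and vehicle control groups, and the measured endpoint of each treated group was divided by that of its vehicle controls.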

[1] = endpoint: mean survival time, dose: 100.0 mg/kg/injection, schedule: Q01DX009 (ip), vehicle: saline with Tween-80
[2] = endpoint: mean survival time, dose: 100.0 mg/kg/injection, schedule: Q04DX003 (ip), vehicle: saline with Tween-80
[3] = endpoint: mean survival time, dose: 200.0 mg/kg/injection, schedule: Q01DX009 (ip), vehicle: saline with Tween-80
[4] = endpoint: mean survival time, dose: 200.0 mg/kg/injection, schedule: Q04DX003 (ip), vehicle: saline with Tween-80
[5] = endpoint: mean survival time, dose: 400.0 mg/kg/injection, schedule: Q01DX009 (ip), vehicle: saline with Tween-80
[6] = endpoint: mean survival time, dose: 400.0 mg/kg/injection, schedule: Q04DX003 (ip), vehicle: saline with Tween-80
[7] = endpoint: mean survival time, dose: 100.0 mg/kg/injection, schedule: Q01DX001 (ip), vehicle: saline
[8] = endpoint: mean survival time, dose: 200.0 mg/kg/injection, schedule: Q01DX001 (ip), vehicle: saline
[9] = endpoint: mean survival time, dose: 400.0 mg/kg/injection, schedule: Q01DX001 (ip), vehicle: saline
[10] = endpoint: mean survival time, dose: 100.0 mg/kg/injection, schedule: Q04DX003 (ip), vehicle: saline
[11] = endpoint: mean survival time, dose: 200.0 mg/kg/injection, schedule: Q04DX003 (ip), vehicle: saline
[12] = endpoint: mean survival time, dose: 400.0 mg/kg/injection, schedule: Q04DX003 (ip), vehicle: saline
[13] = endpoint: mean survival time, dose: 25.0 mg/kg/injection, schedule: Q01DX001 (ip), vehicle: saline

Measured: T/C

CN1CC(=O)n2c(cc3ccccc32)C1=O
inactive: endpoint: mean survival time, dose: 50.0 mg/kg/injection, schedule: Q04DX002 (ip), vehicle: saline 101 % of control | endpoint: mean survival time, dose: 100.0 mg/kg/injection, schedule: Q04DX002 (ip), vehicle: saline 86 % of control | endpoint: mean survival time, dose: 200.0 mg/kg/injection, schedule: Q04DX002 (ip), vehicle: saline 93 % of control | endpoint: mean survival time, dose: 400.0 mg/kg/injection, schedule: Q04DX002 (ip), vehicle: saline 101 % of control

O=S(=O)(NCCNS(=O)(=O)c1ccccc1)c1ccccc1
inactive: endpoint: mean survival time, dose: 100.0 mg/kg/injection, schedule: Q01DX001 (ip), vehicle: saline with Tween-80 110 % of control | endpoint: mean survival time, dose: 200.0 mg/kg/injection, schedule: Q01DX001 (ip), vehicle: saline with Tween-80 95 % of control | endpoint: mean survival time, dose: 400.0 mg/kg/injection, schedule: Q01DX001 (ip), vehicle: saline with Tween-80 100 % of control

CCc1ccccc1OS(=O)(=O)c1cccc([N+](=O)[O-])c1
inactive: [1] 96 % of control | [2] 99 % of control | [3] 98 % of control | [4] 100 % of control | [5] 98 % of control | [6] 99 % of control

O=S1(=O)CCC(C2CCCCC2)C1 (stereo not given)
inactive: [7] 95 % of control | [8] 98 % of control | [9] 106 % of control

Nc1ncnc2c1c1c(SCc3ccc([N+](=O)[O-])cc3)ncnc1n2C1OC(CO)C(O)C1O (stereo not given)
inactive: endpoint: mean survival time, dose: 6.25 mg/kg/injection, schedule: Q01DX005 (ip), vehicle: other 104 % of control | endpoint: mean survival time, dose: 12.5 mg/kg/injection, schedule: Q01DX005 (ip), vehicle: other 104 % of control | endpoint: mean survival time, dose: 25.0 mg/kg/injection, schedule: Q01DX005 (ip), vehicle: other 104 % of control | endpoint: mean survival time, dose: 50.0 mg/kg/injection, schedule: Q01DX005 (ip), vehicle: other 113 % of control | endpoint: mean survival time, dose: 100.0 mg/kg/injection, schedule: Q01DX005 (ip), vehicle: other 103 % of control | endpoint: mean survival time, dose: 200.0 mg/kg/injection, schedule: Q01DX005 (ip), vehicle: other 98 % of control

COC(=O)/C=N/NS(=O)(=O)c1cccc(N)c1
inactive: endpoint: mean survival time, dose: 25.0 mg/kg/injection, schedule: Q04DX003 (ip), vehicle: water 110 % of control | endpoint: mean survival time, dose: 50.0 mg/kg/injection, schedule: Q04DX003 (ip), vehicle: water 104 % of control | endpoint: mean survival time, dose: 100.0 mg/kg/injection, schedule: Q04DX003 (ip), vehicle: water 108 % of control | endpoint: mean survival time, dose: 200.0 mg/kg/injection, schedule: Q04DX003 (ip), vehicle: water 112 % of control

C[n+]1csc(=S)[nH]1
inactive: [10] 105 % of control | [11] 109 % of control | [12] 114 % of control

CC[NH-].[Cl][Pt+2][Cl].[NH2-]
inactive: endpoint: mean survival time, dose: 1.56 mg/kg/injection, schedule: Q04DX003 (ip), vehicle: water 118 % of control | endpoint: mean survival time, dose: 3.13 mg/kg/injection, schedule: Q04DX003 (ip), vehicle: distilled water + Tween-80 119 % of control | endpoint: mean survival time, dose: 6.25 mg/kg/injection, schedule: Q04DX003 (ip), vehicle: water 124 % of control | endpoint: mean survival time, dose: 25.0 mg/kg/injection, schedule: Q04DX003 (ip), vehicle: distilled water + Tween-80 98 % of control

O=C(Cc1ccccc1)NCc1ccccc1
inactive: endpoint: mean survival time, dose: 6.25 mg/kg/injection, schedule: Q01DX001 (ip), vehicle: saline 101 % of control | endpoint: mean survival time, dose: 12.5 mg/kg/injection, schedule: Q01DX001 (ip), vehicle: saline 94 % of control | [13] 101 % of control

CC(c1ccc2ccccc2c1)C1CCCCC1C(=O)O (stereo not given)
inactive: [1] 102 % of control | [3] 100 % of control | [5] 97 % of control

NC(=S)Nc1ccccn1
inactive: endpoint: mean survival time, dose: 25.0 mg/kg/injection, schedule: Q04DX003 (ip), vehicle: saline with Tween-80 100 % of control | endpoint: mean survival time, dose: 50.0 mg/kg/injection, schedule: Q04DX003 (ip), vehicle: saline with Tween-80 102 % of control | [2] 93 % of control

O=NC1CC=CC1Cl (stereo not given)
inactive: [7] 96 % of control and 98 % of control | [8] 107 % of control and 102 % of control | [9] 101 % of control and 98 % of control

[CH3][Sn]([CH3])([Br])[CH2]CCCBr
inactive: endpoint: mean survival time, dose: 0.39 mg/kg/injection, schedule: Q01DX009 (ip), vehicle: saline 90 % of control | endpoint: mean survival time, dose: 0.78 mg/kg/injection, schedule: Q01DX009 (ip), vehicle: saline 94 % of control | endpoint: mean survival time, dose: 1.56 mg/kg/injection, schedule: Q01DX009 (ip), vehicle: saline 92 % of control | endpoint: mean survival time, dose: 6.25 mg/kg/injection, schedule: Q01DX009 (ip), vehicle: saline 98 % of control | endpoint: mean survival time, dose: 12.5 mg/kg/injection, schedule: Q01DX009 (ip), vehicle: saline 91 % of control

O=C1CCc2c(Br)cccc21
inactive: [1] 106 % of control | [2] 114 % of control | [3] 101 % of control | [4] 100 % of control | [5] 110 % of control | [6] 101 % of control

OC(c1ccccc1)C1(c2ccccc2)OCCO1 (stereo not given)
inactive: [1] 95 % of control | [2] 97 % of control | [3] 90 % of control | [4] 92 % of control | [5] 92 % of control | [6] 98 % of control

O=C(CNCc1ccccc1)c1ccccc1
inactive: [2] 94 % of control | [4] 96 % of control | [6] 93 % of control

NCCCCCC(=O)O
inactive: [13] 98 % of control | endpoint: mean survival time, dose: 50.0 mg/kg/injection, schedule: Q01DX001 (ip), vehicle: saline 98 % of control | [7] 93 % of control | endpoint: mean survival time, dose: 100.0 mg/kg/injection, schedule: Q01DX009 (ip), vehicle: saline 94 % of control | [10] 89 % of control | endpoint: mean survival time, dose: 200.0 mg/kg/injection, schedule: Q01DX009 (ip), vehicle: saline 96 % of control | [11] 98 % of control | endpoint: mean survival time, dose: 400.0 mg/kg/injection, schedule: Q01DX009 (ip), vehicle: saline 97 % of control | [12] 102 % of control

CC1=C[S+](c2ccccc2)c2cccc3cc4ccccc4c1c23 (stereo not given)
inactive: endpoint: mean survival time, dose: 5.0 mg/kg/injection, schedule: Q01DX001 (ip), vehicle: saline with Tween-80 111 % of control | endpoint: mean survival time, dose: 10.0 mg/kg/injection, schedule: Q01DX001 (ip), vehicle: saline with Tween-80 106 % of control | endpoint: median survival time, dose: 0.06 mg/kg/injection, schedule: Q01DX009 (ip), vehicle: saline with Tween-80 105 % of control | endpoint: median survival time, dose: 0.12 mg/kg/injection, schedule: Q01DX009 (ip), vehicle: saline with Tween-80 105 % of control | endpoint: median survival time, dose: 0.25 mg/kg/injection, schedule: Q01DX009 (ip), vehicle: saline with Tween-80 107 % of control | endpoint: median survival time, dose: 0.5 mg/kg/injection, schedule: Q01DX009 (ip), vehicle: saline with Tween-80 109 % of control | endpoint: median survival time, dose: 1.0 mg/kg/injection, schedule: Q01DX009 (ip), vehicle: saline with Tween-80 109 % of control | endpoint: median survival time, dose: 2.0 mg/kg/injection, schedule: Q01DX009 (ip), vehicle: saline with Tween-80 115 % of control

CCc1ccccc1NC(=O)Nc1ccc(N(C)C(C)=O)cc1
inactive: [1] 95 % of control | [3] 93 % of control | [5] 93 % of control

COc1cc2c(c(OC)c1OC)-c1ccc(SC)c(=O)cc1[C@@H](NC1OCC(O)C(O)C1O)CC2 (stereo not given in full)
inactive: endpoint: mean survival time, dose: 6.0 mg/kg/injection, schedule: Q01DX009 (ip), vehicle: other 102 % of control | endpoint: mean survival time, dose: 12.0 mg/kg/injection, schedule: Q01DX009 (ip), vehicle: other 120 % of control | endpoint: mean survival time, dose: 12.5 mg/kg/injection, schedule: Q01DX009 (ip), vehicle: other 106 % of control | endpoint: mean survival time, dose: 25.0 mg/kg/injection, schedule: Q01DX009 (ip), vehicle: other 119 % of control | endpoint: mean survival time, dose: 100.0 mg/kg/injection, schedule: Q01DX009 (ip), vehicle: other 88 % of control
